Measured values: patent US20100278730A1, “Non-Invasive Molecular Imaging of Cellular Histone Deacetylase Substrate Using Magnetic Resonance Spectroscopy (MRS) or Positron Emission Tomography (PET)” (priority 2007, published 2010)

Assays:
MB435 tumor xenografts = test: PET of [18F]-FAHA in MB435 tumor xenograft-bearing nude rats (second Example 4); type: in vivo, rat; conditions: blocking study, SAHA 50 mg/kg i.p. 1 hour prior; p<0.01 unpaired t test
Method: Methods: [^18F]-FAHA was synthesized with high specific activity according to a method developed at M. D. Anderson Cancer Center. Human breast cancer cells, cell line MB435, grown as described in Example 3, were used to grow tumor xenografts in nude rats. Ten million cancer cells were injected subcutaneously in the neck area of six nude rats. When tumors were 1 cm in diameter, animals were anesthetized, injected with [^18F]-FAHA (37 MBq) and PET imaging was performed (dynamic) up to 60 min post-injection. Two days after the initial imaging, another PET imaging with [^18F]-FAHA was performed using a […] (SAHA). The animals were given SAHA (50 mg/kg) intraperitoneally 1 hour prior to injection of the radiotracer.

[1] = system: PC3 human prostate cancer cells tumor; test: In vivo detection of HDAC inhibition by MRS in PC3 tumors (Example 3); parameters: species or system mice
Method: Methods. 5×10^6 PC3 human prostate cancer cells suspended in matrigel were injected subcutaneously in male CD-1 nude mice (n=5). When an average tumor volume of 0.2 cm^3 was reached, mice were separated into 2 groups. The treated group (n=3) was treated daily with 50 mg/kg SAHA intraperitoneally, while the control mice were treated with carrier DMSO. MRS was performed on a 4.7T Biospec (Bruker Biospin, Billerica, Mass.) prior to treatment (day 0) and on days 2 and 7 of treatment, using a 1.5 cm (inner diameter) dual-tuned ^1H/^19F surface coil. […] BLT levels determined by ^19F MRS were normalized to the external reference aaa-trifluorotoluene (TFT) (Sigma-Aldrich Chemical Co., St. Louis, Mo.) in a micro-cell spherical bulb placed at a permanent location relative to the coil and expressed as % of maximum tumor BLT levels in each study. For each mouse and also for average values, a paired t-test of BLT evolution was performed for days 2 and 7 with respect to day 0. ^1H MRS data was analyzed by normalizing the tCho signal either to the total ^1H signal or to the internal water signal.

[2] = system: HDAC activity in rat brain; test: PET imaging of HDAC activity in rat brain using [18F]-FAHA (Example 6); type: in vivo; conditions: SAHA 50 mg/kg i.p. 1 hour prior; p<0.01 unpaired t test
Method: Methods: [^18F]-FAHA was synthesized according to the methods developed in our laboratory in high specific activity. Imaging studies with [^18F]-FAHA were conducted in five rats using a PET scanner under isoflurane inhalation anesthesia. The animals were injected intravenously with 37 MBq of [^18F]-FAHA and dynamic scanning PET (0-60 min) was performed. During the imaging session, the rats were anesthetized with 1-1.5 vol % isoflurane/oxygen inhalation and continuously heated with a heating lamp. Two days after the initial study, another PET imaging was performed with [^18F]-FAHA using an […] (SAHA). Each animal was given SAHA (50 mg/kg), intraperitoneally 1 hour prior to injection of the [^18F]-FAHA.
In Table 6, “baseline” refers to brain uptake of FAHA without blocking by SAHA.

PC-3 tumor = test: 19F/31P/1H MRS of PC-3 tumors after BLT injection, with or without SAHA treatment (Example 2); type: in vivo, mice
Method: Methods and Results: PC-3 cells (10^6) were injected into the flank of male nude mice. MR experiments were first performed when tumors were ˜1 cm in diameter. Mice were anesthetized using isoflurane. A 10-mm home-built ^19F surface coil (milled from a polymer-based flexible substrate using a ProtoMat C100/HF (LPKF Laser & Electronics, Wilsonville, Oreg.)) was placed over the tumor, and the animal placed at the center of the magnet. Varacator diodes in the impedance matching circuitry provided a means to match and tune the coil from the console. Following localization, a T2-weighted image of the tumor was recorded using the RARE sequence (TE=45 ms, TR=2 s) via the ^19F surface coil tuned to ^1H. Localized shimming was performed using FASTMAP and achieved ˜20 Hz line width for the water peak. A localized ^1H spectrum was then acquired using a single-voxel PRESS sequence (TE=21 ms, TR=3 s, 96 scans) with VAPOR water suppression. Following retuning of the coil to ^19F, a ‘baseline’ ^19F spectrum was then acquired using a one-pulse sequence (45° flip angle, 300 scans, TR=1 s). A microsphere filled with 20 mM trifluorotoluene (−63.7 ppm) served as an external reference. 100 mg/kg BLT (in 40 μl DMSO) was then injected i.p. and sequential 5-minute ^19F spectra acquired over 90 minutes. The ^19F surface coil was then replaced with a ^31P coil and a spectrum acquired from the tumor region using a one-pulse sequence (30° flip angle, 900 scans, TR=2 s). Adequate SNR was achieved within 30 min.
Following 1 week of treatment, the MR study was repeated.

[3] = Toxicity study of Boc-lysine trifluoroacetic acid (BLT) in nude mice; type: in vivo; conditions: 100 mg/kg BLT i.p. in DMSO on days 1, 8, 15; male nude mice; vs DMSO-treated controls
Method: Rationale: BLT must have no detectable toxic effects at levels that result in an MRS-visible signal in vivo if it were to be used as an imaging agent. To verify this, we monitored the toxicity of 100 mg/kg BLT (˜3 mM plasma concentration), which, based on previously published studies of fluorinated drugs, was expected to result in an MRS-detectable signal. (Hamstra, et al., Mol Ther, 10: 916-928, 2004; McSheehy, et al., Cancer Res, 60: 2122-2127, 2000; Gade, et al., Magn Reson Med, 52: 169-173, 2004; Chung, et al., Clin Cancer Res, 10:3863-3870, 2004; Aboagye, et al., Cancer Res, 58: 4075-4078, 1998).
Methods and Results: Four male nude mice were injected intraperitoneally with 100 mg/kg BLT in 40 μl of DMSO and 4 mice were injected with 40 μl of DMSO alone on days 1, 8, and 15 of the study. The mice were monitored daily for changes in weight, skin and hydration status, activity, behavior, feeding, and neurological status. On day 16, blood samples were collected, and blood counts and hepatic and kidney functions assessed (bilirubin, total protein, aspartate aminotransferase, alanine aminotransferase, creatinine, and blood urea nitrogen). At the end of the study, following animal euthanasia, mice were dissected and tissue samples obtained for histology (hematoxylin-eosin staining).

**Q.** For `O=C(CCCCCCC(=O)Nc1ccccc1)NO` [SAHA, suberoylanilide hydroxamic acid, reference compound], which “effect on uptake of [18F]-FAHA inside tumor” value (MB435 tumor xenografts) is on record?
**A.** Its value is “significantly inhibited”.

**Q.** And the “phosphomonoesters and choline-containing metabolites (31P MRS and 1H MRS)” value ([1]; PC3 tumors following SAHA treatment 50 mg/kg daily i.p.)?
**A.** The value was “transient increase”.

**Q.** And the “effect on uptake of [18F]-FAHA inside brain” value [2]?
**A.** The value was “significantly inhibited”.

**Q.** What about the tumor growth (PC-3 tumor; 50 mg/kg SAHA in DMSO daily i.p., PC-3 tumor, preliminary data) of the same molecule?
**A.** The tumor growth was “inhibition of tumor growth”.

**Q.** And the “BLT levels in the tumor in vivo (19F MRS, normalized to tumor size)” value (PC-3 tumor; 1 week of 50 mg/kg SAHA daily i.p. vs DMSO control and pre-treatment)?
**A.** The value was “higher”.

**Q.** With `CC(C)(C)OC(=O)N[C@@H](CCCCN)C(=O)O.O=C(O)C(F)(F)F` [BLT, Boc-lysine trifluoroacetic acid] as the molecule, how does the “toxicity (weight, behavior, blood counts, hepatic and kidney functions, histology)” value [3] read?
**A.** Its value is “no indication of significant toxicity was observed”.

**Q.** What about the “19F MRS of BLT as indicator of HDAC inhibition” value ([1]; PC3 tumors, SAHA 50 mg/kg daily i.p., days 0, 2, 7, 100 mg/kg BLT i.p.) of the same molecule?
**A.** Its value is “detects HDAC inhibition prior to effect on tumor size”.

**Q.** And the “decrease in tumor BLT levels” value (PC-3 tumor; first 50 min following BLT injection i.p., PC-3 tumor, 19F MRS)?
**A.** The value was about 25%.
